IC50 data for one compound are collected here from ChEMBL document CHEMBL3886670, “ROR modulators and their uses” (2016).

The test has as its target T1, Nuclear receptor ROR-gamma (Homo sapiens, UniProt P51449).
T1 sequence (P51449 whole entry): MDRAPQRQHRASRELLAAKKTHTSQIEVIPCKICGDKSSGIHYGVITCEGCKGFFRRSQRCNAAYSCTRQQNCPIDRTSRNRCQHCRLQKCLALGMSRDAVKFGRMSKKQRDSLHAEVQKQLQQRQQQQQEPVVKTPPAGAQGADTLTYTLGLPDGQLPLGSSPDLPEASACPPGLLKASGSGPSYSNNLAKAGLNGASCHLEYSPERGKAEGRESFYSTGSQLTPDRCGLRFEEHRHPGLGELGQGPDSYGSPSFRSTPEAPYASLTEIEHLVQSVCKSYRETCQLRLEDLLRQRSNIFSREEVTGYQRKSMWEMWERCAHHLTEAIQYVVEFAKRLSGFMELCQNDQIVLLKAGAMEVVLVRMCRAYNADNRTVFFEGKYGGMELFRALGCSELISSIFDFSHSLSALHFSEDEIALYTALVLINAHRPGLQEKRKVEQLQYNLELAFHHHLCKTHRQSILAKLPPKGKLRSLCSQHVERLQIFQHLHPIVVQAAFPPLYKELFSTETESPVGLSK
Put plainly: Binding Assay: Compound binding to the human RORγ LBD was assessed using the Human RORγ Assay System (INDIGO Biosciences Inc.) as per manufacturer's instructions. Binding to the RORγ LBD was assessed using gradient concentrations of the indicated compounds in a final concentration of 0.5% DMSO.

Compound `CS(=O)(=O)Nc1ccc2c(c1)CCC(=O)N2Cc1ccc(C(O)(C(F)(F)F)C(F)(F)F)cc1` came in with an IC50 of under 10 µM.

The IC50 is the concentration that inhibits the measured activity by half. Higher therefore signals lower potency.
